# Laboratory results from patent US7998995B2 (Exelixis Patent Company LLC, priority 2006, dated 2011).
# Legend:
# LXR = tested on: T1, LXR; experiment: Measured EC50 or IC50 for LXR (LXRα and/or LXRβ; assay and subtype not given); conditions: IC50 or EC50 class, subtype not specified
# T1 construct: fused on or other part: GST fused to the LBD in the FRET assay
# Description: (§1) Measured EC50 or IC50 for LXR, and FXR for Compounds of the Invention
# (§2) LXR and FXR activities for various compounds of the invention are presented in the following table; those compounds with EC50 or IC50 values <10 μM for at least one of LXRα, LXRβ or FXR are considered to be active. In the following Table, IC50 or EC50 data is represented as follows: A<1 μM, B=1-10 μm, and C>10 μM.
# FXR = biological target: T2, FXR (Homo sapiens, UniProt Q96RI1); experiment: Measured EC50 or IC50 for FXR (assay not given); conditions: IC50 or EC50 class; assay not specified
# T2 sequence (Q96RI1 1-472 isoform Q96RI1-2): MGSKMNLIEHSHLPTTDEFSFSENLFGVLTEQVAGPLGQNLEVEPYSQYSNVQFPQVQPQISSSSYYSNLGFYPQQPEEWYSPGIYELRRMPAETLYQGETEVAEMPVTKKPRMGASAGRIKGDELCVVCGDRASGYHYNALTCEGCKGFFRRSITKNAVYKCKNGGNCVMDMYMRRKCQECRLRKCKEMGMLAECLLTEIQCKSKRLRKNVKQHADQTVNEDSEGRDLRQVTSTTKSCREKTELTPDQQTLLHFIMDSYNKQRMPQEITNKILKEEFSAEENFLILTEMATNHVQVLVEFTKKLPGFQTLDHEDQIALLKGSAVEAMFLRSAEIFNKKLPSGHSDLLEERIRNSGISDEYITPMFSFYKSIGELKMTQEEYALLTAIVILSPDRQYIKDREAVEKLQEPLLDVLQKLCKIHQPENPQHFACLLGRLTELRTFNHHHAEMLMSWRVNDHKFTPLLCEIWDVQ
# Description: as §1, §2
Compound,EC50 (LXR),EC50 (FXR)
"CC(C)(O)c1cc(COc2ccc(-c3ccc(C(=O)O)cc3Cl)cc2)n(-c2c(Cl)cccc2Cl)n1 [Example 906, 2-chloro-4′-({[1-(2,6-dichlorophenyl)-3-(1-hydroxy-1-methylethyl)-1H-pyrazol-5-yl]methyl}oxy)biphenyl-4-carboxylic acid]",1000 to 10000 nM,1000 to 10000 nM
"CC(C)c1cc(COc2ccc(-c3ccc(C(=O)O)cc3Cl)cc2)n(-c2c(Cl)cccc2Cl)n1 [Example 907, 2-chloro-4′-({[1-(2,6-dichlorophenyl)-3-(1-methylethyl)-1H-pyrazol-5-yl]methyl}oxy)biphenyl-4-carboxylic acid]",1000 to 10000 nM,< 1000 nM
"O=C(O)c1ccc(-c2ccc(OCc3cc(C(F)(F)F)nn3-c3c(Cl)cccc3Cl)cc2)cc1 [Example 921, 4′-({[1-(2,6-dichlorophenyl)-3-(trifluoromethyl)-1H-pyrazol-5-yl]methyl}oxy)biphenyl-4-carboxylic acid]",> 10000 nM,1000 to 10000 nM
"O=C(O)c1ccc(-c2ccc(OCc3cc(C(F)(F)F)nn3-c3c(Cl)cccc3Cl)cc2)c(Cl)c1 [Example 946, 2-chloro-4′-({[1-(2,6-dichlorophenyl)-3-(trifluoromethyl)-1H-pyrazol-5-yl]methyl}oxy)biphenyl-4-carboxylic acid]",< 1000 nM,1000 to 10000 nM
"CC(C)c1cc(COc2ccc(-c3ccc(C(=O)O)cc3Cl)cc2)n(-c2c(Cl)cccc2Cl)n1 [Example 947, 2-chloro-4′-({[1-(2,6-dichlorophenyl)-3-(1-methylethyl)-1H-pyrazol-5-yl]methyl}oxy)biphenyl-4-carboxylic acid]",< 1000 nM,< 1000 nM
"CC(C)(O)c1cc(-c2ccc(-c3cccc(S(C)(=O)=O)c3)s2)n(-c2c(F)cccc2F)n1 [Example 948, 2-[1-(2,6-difluorophenyl)-5-{5-[3-(methylsulfonyl)phenyl]-2-thienyl}-1H-pyrazol-3-yl]propan-2-ol]",< 1000 nM,1000 to 10000 nM
"Cc1nccn1-c1cn(-c2ccc(-c3cccc(S(C)(=O)=O)c3)cc2)c(-c2c(Cl)cccc2Cl)n1 [Example 1001, 2′-(2,6-dichlorophenyl)-2-methyl-1′-[3′-(methylsulfonyl)biphenyl-4-yl]-1′H-1,4′-biimidazole]",< 1000 nM,
"CS(=O)(=O)c1cccc(-c2ccc(-n3cc(N4CCCC4)nc3-c3c(Cl)cccc3Cl)cc2)c1 [Example 1002, 2-(2,6-dichlorophenyl)-1-[3′-(methylsulfonyl)biphenyl-4-yl]-4-(pyrrolidin-1-yl)-1H-imidazole]",< 1000 nM,
"CS(=O)(=O)c1cccc(-c2ccc(-n3cc(N4CCC(O)C4)nc3-c3ccccc3C(F)(F)F)cc2)c1 (centres unmarked) [Example 1003, 1-(1-(3′-(methylsulfonyl)biphenyl-4-yl)-2-(2-(trifluoromethyl)phenyl)-1H-imidazol-4-yl)pyrrolidin-3-ol]",< 1000 nM,
"CS(=O)(=O)c1cccc(-c2ccc(-n3cc(N4CCCCC4)nc3-c3ccccc3C(F)(F)F)cc2)c1 [Example 1004, 1-(1-(3′-(methylsulfonyl)biphenyl-4-yl)-2-(2-(trifluoromethyl)phenyl)-1H-imidazol-4-yl)piperidine]",< 1000 nM,
"CS(=O)(=O)c1cccc(-c2ccc(-n3cc(N4CCCC4=O)nc3-c3c(Cl)cccc3Cl)cc2)c1 [Example 1005, 1-{2-(2,6-dichlorophenyl)-1-[3′-(methylsulfonyl)biphenyl-4-yl]-1H-imidazol-4-yl}pyrrolidin-2-one]",< 1000 nM,
"CS(=O)(=O)c1cccc(-c2ccc(-n3cc(-n4cnc(C#N)c4)nc3-c3ccccc3C(F)(F)F)cc2)c1 [Example 1008, 1′-(3′-(methylsulfonyl)biphenyl-4-yl)-2′-(2-(trifluoromethyl)phenyl)-1′H-1,4′-biimidazole-4-carbonitrile]",< 1000 nM,
"CS(=O)(=O)c1cccc(-c2ccc(-n3cc(-n4cnc(CO)c4)nc3-c3ccccc3C(F)(F)F)cc2)c1 [Example 1009, (1′-(3′-(methylsulfonyl)biphenyl-4-yl)-2′-(2-(trifluoromethyl)phenyl)-1′H-1,4′-biimidazol-4-yl)methanol]",< 1000 nM,
CS(=O)(=O)c1cccc(-c2ccc(-n3cc(-n4cccc4C#N)nc3-c3ccccc3C(F)(F)F)cc2)c1 [Example 1010],< 1000 nM,
"CS(=O)(=O)c1cccc(-c2ccc(-n3cc(-c4ncco4)nc3-c3ccccc3C(F)(F)F)cc2)c1 [Example 1011, 2-(1-(3′-(methylsulfonyl)biphenyl-4-yl)-2-(2-(trifluoromethyl)phenyl)-1H-imidazol-4-yl)oxazole]",> 10000 nM,
"CS(=O)(=O)c1cccc(-c2ccc(-n3cc(-c4ncco4)nc3-c3ccccc3Cl)c(Cl)c2)c1 [Example 1012, 2-(1-(3-chloro-3′-(methylsulfonyl)biphenyl-4-yl)-2-(2-chlorophenyl)-1H-imidazol-4-yl)oxazole]",1000 to 10000 nM,

Compound,EC50 (LXR),EC50 (FXR)
"Cc1csc(-c2cn(-c3ccc(-c4cccc(S(C)(=O)=O)c4)cc3)c(-c3c(Cl)cccc3Cl)n2)n1 [Example 1013, 2-(2-(2,6-dichlorophenyl)-1-(3′-(methylsulfonyl)biphenyl-4-yl)-1H-imidazol-4-yl)-4-methylthiazole]",< 1000 nM,
"CS(=O)(=O)c1cccc(-c2ccc(-n3cc(-c4nccs4)nc3-c3c(Cl)cccc3Cl)cc2)c1 [Example 1014, 2-(2-(2,6-dichlorophenyl)-1-(3′-(methylsulfonyl)biphenyl-4-yl)-1H-imidazol-4-yl)thiazole]",< 1000 nM,
"CS(=O)(=O)c1cccc(-c2ccc(-n3cc([C@H]4CCCN4)nc3-c3ccccc3C(F)(F)F)cc2)c1 [Example 1016, 1-(3′-(methylsulfonyl)biphenyl-4-yl)-4-((R)-pyrrolidin-2-yl)-2-(2-(trifluoromethyl)phenyl)-1H-imidazole]",< 1000 nM,
"CC(C)(C)OC(=O)N1CCC[C@@H]1c1cn(-c2ccc(-c3cccc(S(C)(=O)=O)c3)cc2)c(-c2ccccc2C(F)(F)F)n1 [Example 1017, (R)-tert-butyl 2-(1-(3′-(methylsulfonyl)biphenyl-4-yl)-2-(2-(trifluoromethyl)phenyl)-1H-imidazol-4-yl)pyrrolidine-1-carboxylate]",< 1000 nM,
"CC(=O)N1CCC[C@@H]1c1cn(-c2ccc(-c3cccc(S(C)(=O)=O)c3)cc2)c(-c2ccccc2C(F)(F)F)n1 [Example 1019, 1-((2R)-2-(1-(3′-(methylsulfonyl)biphenyl-4-yl)-2-(2-(trifluoromethyl)phenyl)-1H-imidazol-4-yl)pyrrolidin-1-yl)ethanone]",> 10000 nM,
"CS(=O)(=O)c1cccc(-c2ccc(-n3cc(-c4n[nH]c(=O)o4)nc3-c3ccccc3C(F)(F)F)cc2)c1 [Example 1023, 5-(1-(3′-(methylsulfonyl)biphenyl-4-yl)-2-(2-(trifluoromethyl)phenyl)-1H-imidazol-4-yl)-1,3,4-oxadiazol-2(3H)-one]",< 1000 nM,
"Cc1nnc(-c2cn(-c3ccc(-c4cccc(S(C)(=O)=O)c4)cc3)c(-c3ccccc3C(F)(F)F)n2)o1 [Example 1024, 2-methyl-5-(1-(3′-(methylsulfonyl)biphenyl-4-yl)-2-(2-(trifluoromethyl)phenyl)-1H-imidazol-4-yl)-1,3,4-oxadiazole]",< 1000 nM,
"CS(=O)(=O)c1cccc(-c2ccc(-n3cc(-c4nnc(C(F)(F)F)o4)nc3-c3ccccc3Cl)c(Cl)c2)c1 [Example 1025, 2-(1-(3-chloro-3′-(methylsulfonyl)biphenyl-4-yl)-2-(2-chlorophenyl)-1H-imidazol-4-yl)-5-(trifluoromethyl)-1,3,4-oxadiazole]",< 1000 nM,
"Cc1coc(-c2cn(-c3ccc(-c4cccc(S(C)(=O)=O)c4)cc3)c(-c3ccccc3C(F)(F)F)n2)n1 [Example 1026, methyl-2-(1-(3′-(methylsulfonyl)biphenyl-4-yl)-2-(2-(trifluoromethyl)phenyl)-1H-imidazol-4-yl)oxazole]",< 1000 nM,
"CS(=O)(=O)c1cccc(-c2ccc(-n3cc(-c4cnco4)nc3-c3ccccc3Cl)c(Cl)c2)c1 [Example 1028, 5-(1-(3-chloro-3′-(methylsulfonyl)biphenyl-4-yl)-2-(2-chlorophenyl)-1H-imidazol-4-yl)oxazole]",< 1000 nM,
"CS(=O)(=O)c1cccc(-c2ccc(-n3cc(C4(C#N)CCOCC4)nc3-c3ccccc3C(F)(F)F)cc2)c1 [Example 1031, 4-(1-(3′-methylsulfonyl)biphenyl-4-yl)-2-(2-(trifluoromethyl)phenyl-1H-imidazol-4-yl)tetrahydro-2H-pyran-4-carbonitrile]",< 1000 nM,
Cc1nc(-c2cn(-c3ccc(-c4cccc(S(C)(=O)=O)c4)cc3)c(-c3ccccc3C(F)(F)F)n2)no1 [Example 1032],< 1000 nM,
Cn1oc(=O)nc1-c1cn(-c2ccc(-c3cccc(S(C)(=O)=O)c3)cc2)c(-c2ccccc2C(F)(F)F)n1 [Example 1034],< 1000 nM,
CS(=O)(=O)c1cccc(-c2ccc(-n3cc(-c4nc(=O)o[nH]4)nc3-c3ccccc3C(F)(F)F)cc2)c1 [Example 1035],< 1000 nM,
Cn1oc(=S)nc1-c1cn(-c2ccc(-c3cccc(S(C)(=O)=O)c3)cc2)c(-c2ccccc2C(F)(F)F)n1 [Example 1036],< 1000 nM,
Cc1nsc(-c2cn(-c3ccc(-c4cccc(S(C)(=O)=O)c4)cc3)c(-c3ccccc3C(F)(F)F)n2)n1 [Example 1037],> 10000 nM,
